# According to patent publication US20260265238A1, “COMPOUNDS AND PHARMACEUTICAL COMPOSITIONS THAT DEGRADE SWI/SNF-RELATED MATRIX-ASSOCIATED ACTIN-DEPENDENT REGULATOR OF CHROMATIN SUBFAMILY A” (Plexium, Inc., priority 2023, published 2026):
# How the values were obtained:
# [1] = biological target: T1, SMARCA2-HiBiT HeLa cells (protein which is expressed from the SMARCA2 gene) (Homo sapiens, UniProt P51531); assay: SMARCA2 degradation assay (HiBiT-fusion HeLa cell line, 24 h, luminescence); type: cell-based
# T1 construct: protein which is expressed from the SMARCA2 and SMARCA4 genes; host or cells: HeLa (SMARCA2-HiBiT engineered line)
# In short: (§1)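 In this 24-hour cellular degradation readout, HiBiT-tagged HeLa lines received compound at up to typically 10 μM down to 300 pM in 10 points. After lysis with LgBiT and substrate, luminescence signals were used to build dose-response curves for DC50.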
# [2] = biological target: T2, SMARCA4-HiBiT HeLa cells (protein which is expressed from the SMARCA4 gene) (Homo sapiens, UniProt P51532); assay: SMARCA4 degradation assay (HiBiT-fusion HeLa cell line, 24 h, luminescence); type: cell-based
# T2 construct: protein which is expressed from the SMARCA2 and SMARCA4 genes; host or cells: HeLa (SMARCA4-HiBiT engineered line)
# In short: as §1
# T1 sequence (P51531 whole entry, the tested form may be a part): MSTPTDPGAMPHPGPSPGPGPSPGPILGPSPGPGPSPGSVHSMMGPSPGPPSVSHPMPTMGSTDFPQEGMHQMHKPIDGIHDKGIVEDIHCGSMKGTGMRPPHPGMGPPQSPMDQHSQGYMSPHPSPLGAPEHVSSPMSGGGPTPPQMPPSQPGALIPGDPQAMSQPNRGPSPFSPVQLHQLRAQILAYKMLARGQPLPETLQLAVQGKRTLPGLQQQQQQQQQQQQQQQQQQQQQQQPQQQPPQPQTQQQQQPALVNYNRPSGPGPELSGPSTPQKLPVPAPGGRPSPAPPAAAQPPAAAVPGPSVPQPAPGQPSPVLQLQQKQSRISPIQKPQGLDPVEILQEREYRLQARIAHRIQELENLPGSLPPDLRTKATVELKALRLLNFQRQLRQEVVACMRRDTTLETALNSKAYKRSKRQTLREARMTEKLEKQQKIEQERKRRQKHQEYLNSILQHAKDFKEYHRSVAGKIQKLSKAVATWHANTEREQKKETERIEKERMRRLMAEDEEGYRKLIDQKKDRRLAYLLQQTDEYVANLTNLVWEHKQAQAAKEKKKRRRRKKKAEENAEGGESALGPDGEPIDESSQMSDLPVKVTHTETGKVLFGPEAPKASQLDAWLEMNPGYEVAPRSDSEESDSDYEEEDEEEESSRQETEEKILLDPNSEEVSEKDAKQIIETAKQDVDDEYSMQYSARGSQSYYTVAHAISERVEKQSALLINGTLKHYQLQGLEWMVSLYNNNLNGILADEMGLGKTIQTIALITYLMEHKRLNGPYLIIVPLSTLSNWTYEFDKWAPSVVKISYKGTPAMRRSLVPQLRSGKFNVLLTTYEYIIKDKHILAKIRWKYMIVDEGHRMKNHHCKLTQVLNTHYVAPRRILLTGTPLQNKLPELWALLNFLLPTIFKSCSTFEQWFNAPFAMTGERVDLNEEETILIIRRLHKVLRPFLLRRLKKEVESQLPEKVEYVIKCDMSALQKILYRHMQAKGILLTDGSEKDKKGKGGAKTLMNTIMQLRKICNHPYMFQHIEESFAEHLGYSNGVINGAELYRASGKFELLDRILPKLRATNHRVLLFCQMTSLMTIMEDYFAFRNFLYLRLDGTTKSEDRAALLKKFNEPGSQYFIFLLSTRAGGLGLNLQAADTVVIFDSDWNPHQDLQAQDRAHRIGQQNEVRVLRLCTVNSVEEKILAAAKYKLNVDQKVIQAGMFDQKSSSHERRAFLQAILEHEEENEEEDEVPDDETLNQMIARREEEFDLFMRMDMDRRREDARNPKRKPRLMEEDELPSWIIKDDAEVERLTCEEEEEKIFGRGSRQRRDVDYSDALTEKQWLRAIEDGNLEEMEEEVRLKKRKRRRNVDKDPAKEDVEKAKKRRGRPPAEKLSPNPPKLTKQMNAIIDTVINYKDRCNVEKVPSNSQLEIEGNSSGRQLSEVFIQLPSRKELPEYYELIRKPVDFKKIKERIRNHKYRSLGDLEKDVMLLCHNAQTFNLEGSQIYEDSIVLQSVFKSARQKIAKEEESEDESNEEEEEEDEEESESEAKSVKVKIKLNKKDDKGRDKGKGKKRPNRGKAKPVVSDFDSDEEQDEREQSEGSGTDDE
# T2 sequence (P51532 whole entry, the tested form may be a part): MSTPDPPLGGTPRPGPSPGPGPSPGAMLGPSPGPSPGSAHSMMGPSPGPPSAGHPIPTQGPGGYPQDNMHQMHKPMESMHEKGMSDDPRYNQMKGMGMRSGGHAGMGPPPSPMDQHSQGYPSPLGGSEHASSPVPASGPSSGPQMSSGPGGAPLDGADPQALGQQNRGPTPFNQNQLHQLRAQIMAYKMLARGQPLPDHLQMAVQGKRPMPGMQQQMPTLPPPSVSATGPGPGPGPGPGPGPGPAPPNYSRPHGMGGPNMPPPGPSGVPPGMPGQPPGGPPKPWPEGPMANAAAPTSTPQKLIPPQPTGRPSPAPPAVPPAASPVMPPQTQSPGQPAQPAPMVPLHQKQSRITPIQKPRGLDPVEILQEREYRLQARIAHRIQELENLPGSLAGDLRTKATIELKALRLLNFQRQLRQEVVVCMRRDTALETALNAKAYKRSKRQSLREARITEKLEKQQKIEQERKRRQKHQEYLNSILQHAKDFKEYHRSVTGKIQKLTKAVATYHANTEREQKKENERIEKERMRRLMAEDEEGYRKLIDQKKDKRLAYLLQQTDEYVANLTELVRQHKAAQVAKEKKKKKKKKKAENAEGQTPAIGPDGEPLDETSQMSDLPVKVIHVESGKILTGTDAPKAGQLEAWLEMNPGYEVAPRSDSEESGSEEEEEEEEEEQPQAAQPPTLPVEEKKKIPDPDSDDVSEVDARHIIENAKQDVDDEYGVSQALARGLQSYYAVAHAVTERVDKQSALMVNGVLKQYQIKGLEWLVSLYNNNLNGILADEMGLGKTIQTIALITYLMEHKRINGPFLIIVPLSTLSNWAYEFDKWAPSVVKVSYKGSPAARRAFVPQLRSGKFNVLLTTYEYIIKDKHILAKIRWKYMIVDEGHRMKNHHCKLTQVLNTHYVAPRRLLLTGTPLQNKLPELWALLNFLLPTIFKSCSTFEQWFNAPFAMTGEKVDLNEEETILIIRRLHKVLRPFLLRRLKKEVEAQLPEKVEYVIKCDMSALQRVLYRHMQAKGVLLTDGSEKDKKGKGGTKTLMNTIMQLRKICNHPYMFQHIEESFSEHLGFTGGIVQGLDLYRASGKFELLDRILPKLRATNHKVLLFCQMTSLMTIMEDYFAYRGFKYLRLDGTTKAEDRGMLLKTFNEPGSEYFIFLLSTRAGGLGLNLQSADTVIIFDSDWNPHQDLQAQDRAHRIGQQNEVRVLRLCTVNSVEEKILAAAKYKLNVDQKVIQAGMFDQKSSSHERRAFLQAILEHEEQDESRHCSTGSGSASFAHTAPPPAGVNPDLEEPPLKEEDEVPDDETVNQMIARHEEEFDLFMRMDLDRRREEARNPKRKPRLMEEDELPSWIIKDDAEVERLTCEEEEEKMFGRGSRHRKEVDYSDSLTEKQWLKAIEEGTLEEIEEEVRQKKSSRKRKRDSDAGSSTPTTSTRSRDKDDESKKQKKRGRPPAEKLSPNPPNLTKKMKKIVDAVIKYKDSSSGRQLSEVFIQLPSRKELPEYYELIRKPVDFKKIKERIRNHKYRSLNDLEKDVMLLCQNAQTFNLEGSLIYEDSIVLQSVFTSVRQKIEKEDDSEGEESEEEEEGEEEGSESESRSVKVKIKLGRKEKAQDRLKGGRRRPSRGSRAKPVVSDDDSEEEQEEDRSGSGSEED
smiles,measurement,setting,value
"Nc1nnc(-c2ccccc2O)cc1N1CCCN(c2ccnc(C#CCNC3CCOCC3)n2)CC1 [Compound P-300, 0-[6-amino-5-(4-{2-[3-(tetrahydro-2H-pyran-4-ylamino)-1-propynyl]-4-pyrimidinyl}-1,4-diazepan-1-yl)-3-pyridazinyl]phenol]",DC50,[1],50 to 500 nM
same,SMARCA2 % Degradation @ 1 μM,[1]; @ 1 μM,+++ (+++=>70%)
same,DC50,[2],50 to 500 nM
same,inhibition at 1 µM,[2]; @ 1 μM,30 to 70%
"Nc1nnc(-c2ccccc2O)cc1N1CCN(c2ccnc(C#CCNC(=O)C3COc4ccccc4O3)n2)CC1 (stereo not shown) [Compound P-61, N-(3-(4-(4-(3-amino-6-(2-hydroxyphenyl)pyridazin-4-yl)piperazin-1-yl)pyrimidin-2-yl)prop-2-yn-1-yl)-2,3-dihydrobenzo[b][1,4]dioxine-2-carboxamide]",DC50,[1],50 to 500 nM
same,SMARCA2 % Degradation @ 1 μM,[1]; @ 1 μM,++ (++=30-70%)
same,DC50,[2],50 to 500 nM
same,inhibition at 1 µM,[2]; @ 1 μM,30 to 70%
CC(C#Cc1ncc(F)c(N2CCN(c3cc(-c4ccccc4O)nnc3N)CC[C@H]2C)n1)N(C)C (stereo partly shown) [Compound P-208],DC50,[1],50 to 500 nM
same,SMARCA2 % Degradation @ 1 μM,[1]; @ 1 μM,++ (++=30-70%)
same,DC50,[2],50 to 500 nM
same,inhibition at 1 µM,[2]; @ 1 μM,< 30%
C[C@H]1CCN(c2cc(-c3ccccc3O)nnc2N)CCN1c1ccnc(C#CCN(C)C)n1 [Compound P-250],DC50,[1],< 50 nM
same,SMARCA2 % Degradation @ 1 μM,[1]; @ 1 μM,+++ (+++=>70%)
same,DC50,[2],< 50 nM
same,inhibition at 1 µM,[2]; @ 1 μM,> 70%
"C[C@H]1CCN(c2cc(-c3ccccc3O)nnc2N)CCN1c1ccc(C#N)c(C#CCN2CC[C@H](F)C2)n1 [Compound P-411, 6-{(S)-4-[3-amino-6-(o-hydroxyphenyl)-4-pyridazinyl]-7-methyl-1,4-diazepan-1-yl}-2-{3-[(S)-3-fluoro-1-pyrrolidinyl]-1-propynyl} nicotinonitrile]",DC50,[1],50 to 500 nM
same,SMARCA2 % Degradation @ 1 μM,[1]; 1 μM,++ (++=30-70%)
same,DC50,[2],50 to 500 nM
same,inhibition at 1 µM,[2]; 1 μM,< 30%
"CNCC#Cc1nccc(N2CCCN(c3cc(-c4ccccc4O)nnc3N)CC2)n1 [Compound P-147, 2-(6-amino-5-(4-(2-(3-(methylamino)prop-1-yn-1-yl)pyrimidin-4-yl)-1,4-diazepan-1-yl)pyridazin-3-yl)phenol]",DC50,[1],50 to 500 nM
same,SMARCA2 % Degradation @ 1 μM,[1]; @ 1 μM,++ (++=30-70%)
same,DC50,[2],50 to 500 nM
same,inhibition at 1 µM,[2]; @ 1 μM,30 to 70%
"CC(C)(C)OC(=O)N1C2CCC1CN(CC#Cc1nccc(N3CCCN(c4cc(-c5ccccc5O)nnc4N)CC3)n1)C2 [Compound P-358, tert-butyl 3-[3-(4-{4-[3-amino-6-(o-hydroxyphenyl)-4-pyridazinyl]-1,4-diazepan-1-y1}-2-pyrimidinyl)-2-propynyl]-3,8-diazabicyclo[3.2.1]octane-8-carboxylate]",DC50,[1],500 to 5000 nM
same,SMARCA2 % Degradation @ 1 μM,[1]; @ 1 μM,++ (++=30-70%)
same,DC50,[2],500 to 5000 nM
same,inhibition at 1 µM,[2]; @ 1 μM,30 to 70%
"CC(C#Cc1nc(N2CCN(c3cc(-c4ccccc4O)nnc3N)CC[C@H]2C)ccc1C#N)N(C)C (stereo partly drawn) [Compound P-407, 6-{(R)-4-[3-amino-6-(o-hydroxyphenyl)-4-pyridazinyl]-7-methyl-1,4-diazepan-1-yl}-2-[3-(dimethylamino)-1-butynyl]nicotinonitrile]",DC50,[1],< 50 nM
same,SMARCA2 % Degradation @ 1 μM,[1]; 1 μM,++ (++=30-70%)
same,DC50,[2],< 50 nM
same,inhibition at 1 µM,[2]; 1 μM,< 30%
"Nc1nnc(-c2ccccc2O)cc1N1CC2C1CCN2c1ccnc(C#CCNC(=O)c2cc3ncccn3n2)n1 (stereo not shown) [Compound P-18, N-(3-(4-(6-(3-amino-6-(2-hydroxyphenyl)pyridazin-4-yl)-2,6-diazabicyclo[3.2.0]heptan-2-yl)pyrimidin-2-y1)prop-2-yn-1-yl)pyrazolo[1,5-a]pyrimidine-2-carboxamide]",DC50,[1],500 to 5000 nM
same,SMARCA2 % Degradation @ 1 μM,[1]; @ 1 μM,+ (+=<30%)
same,DC50,[2],50 to 500 nM
same,inhibition at 1 µM,[2]; @ 1 μM,30 to 70%
"COCc1cc(N2CCCN(c3cc(-c4ccccc4O)nnc3N)CC2)nc(C#CCNC(=O)c2nn(C)c(C)c2C)n1 [Compound P-126, N-(3-(4-(4-(3-amino-6-(2-hydroxyphenyl)pyridazin-4-yl)-1,4-diazepan-1-yl)-6-(methoxymethyl)pyrimidin-2-yl)prop-2-yn-1-yl)-1,4,5-trimethyl-1H-pyrazole-3-carboxamide]",DC50,[1],50 to 500 nM
same,SMARCA2 % Degradation @ 1 μM,[1]; @ 1 μM,++ (++=30-70%)
same,DC50,[2],50 to 500 nM
same,inhibition at 1 µM,[2]; @ 1 μM,30 to 70%
"Nc1nnc(-c2ccccc2O)cc1N1CCCN(c2ccnc(C#CCNc3nc4ccccc4o3)n2)CC1 [Compound P-26, 2-(6-amino-5-(4-(2-(3-(benzo[d]oxazol-2-ylamino)prop-1-yn-1-yl)pyrimidin-4-yl)-1,4-diazepan-1-yl)pyridazin-3-yl)phenol]",DC50,[1],50 to 500 nM
same,SMARCA2 % Degradation @ 1 μM,[1]; @ 1 μM,+++ (+++=>70%)
same,DC50,[2],50 to 500 nM
same,inhibition at 1 µM,[2]; @ 1 μM,> 70%
"Nc1nnc(-c2ccccc2O)cc1N1CCN(c2ccnc(C#CCNC(=O)c3cc4ccccc4o3)n2)CC1 [Compound P-75, N-(3-(4-(4-(3-amino-6-(2-hydroxyphenyl)pyridazin-4-yl)piperazin-1-yl)pyrimidin-2-yl)prop-2-yn-1-yl)benzofuran-2-carboxamide]",DC50,[1],50 to 500 nM
same,SMARCA2 % Degradation @ 1 μM,[1]; @ 1 μM,++ (++=30-70%)
same,DC50,[2],< 50 nM
same,inhibition at 1 µM,[2]; @ 1 μM,30 to 70%
"C[C@@H]1CCN(c2cc(-c3ccccc3O)nnc2N)CCN1c1nc(C#CCO)ncc1F [Compound P-207, o-(5-{(R)-4-[5-fluoro-2-(3-hydroxy-1-propynyl)-4-pyrimidinyl]-5-methyl-1,4-diazepan-1-yl}-6-amino-3-pyridazinyl)phenol]",DC50,[1],500 to 5000 nM
same,SMARCA2 % Degradation @ 1 μM,[1]; @ 1 μM,++ (++=30-70%)
same,DC50,[2],500 to 5000 nM
same,inhibition at 1 µM,[2]; @ 1 μM,< 30%
"CNCC#Cc1nccc(N2CCN(c3cc(-c4ccccc4O)nnc3N)[C@@H](C)C2)n1 [Compound P-292, 0-{5-[(S)-2-methyl-4-{2-[3-(methylamino)-1-propynyl]-4-pyrimidinyl}-1-pipcrazinyl]-6-amino-3-pyridaziny1} phenol]",DC50,[1],50 to 500 nM
same,SMARCA2 % Degradation @ 1 μM,[1]; @ 1 μM,++ (++=30-70%)
same,DC50,[2],< 50 nM
same,inhibition at 1 µM,[2]; @ 1 μM,< 30%
"C/C=C/c1nccc(N2CCCN(c3cc(-c4ccccc4O)nnc3N)CC2)n1 [Compound P-158, o-(6-amino-5-{4-[2-(1-propenyl)-4-pyrimidinyl]-1,4-diazepan-1-yl}-3-pyridazinyl)phenol]",DC50,[1],50 to 500 nM
same,SMARCA2 % Degradation @ 1 μM,[1]; @ 1 μM,??
same,DC50,[2],50 to 500 nM
same,inhibition at 1 µM,[2]; @ 1 μM,30 to 70%
"Nc1nnc(-c2ccccc2O)cc1N1CCCN(c2ccnc(C#CCN3C4CCC3CC(O)C4)n2)CC1 (stereo not shown) [Compound P-338, 8-[3-(4-{4-[3-amino-6-(o-hydroxyphenyl)-4-pyridazinyl]-1,4-diazepan-1-yl}-2-pyrimidinyl)-2-propynyl]-8-azabicyclo[3.2.1]octan-3-ol]",DC50,[1],50 to 500 nM
same,SMARCA2 % Degradation @ 1 μM,[1]; @ 1 μM,++ (++=30-70%)
same,DC50,[2],50 to 500 nM
same,inhibition at 1 µM,[2]; @ 1 μM,< 30%
"CN(CC#Cc1nccc(N2CCCN(c3cc(-c4ccccc4O)nnc3N)CC2)n1)C(=O)c1cc2ncccn2n1 [Compound P-24, N-(3-(4-(4-(3-amino-6-(2-hydroxyphenyl)pyridazin-4-yl)-1,4-diazepan-1-yl)pyrimidin-2-yl)prop-2-yn-1-yl)-N-methylpyrazolo[1,5-a]pyrimidine-2-carboxamide]",DC50,[1],< 50 nM
same,SMARCA2 % Degradation @ 1 μM,[1]; @ 1 μM,+++ (+++=>70%)
same,DC50,[2],< 50 nM
same,inhibition at 1 µM,[2]; @ 1 μM,> 70%
"CCC1CN(c2ccnc(C#CCNC(=O)c3cc4ncccn4n3)n2)CCN1c1cc(-c2ccccc2O)nnc1N (stereo not shown) [Compound P-51, N-(3-(4-(4-(3-amino-6-(2-hydroxyphenyl)pyridazin-4-yl)-3-ethylpiperazin-1-yl)pyrimidin-2-yl)prop-2-yn-1-yl)pyrazolo[1,5-a]pyrimidine-2-carboxamide]",DC50,[1],50 to 500 nM
same,SMARCA2 % Degradation @ 1 μM,[1]; @ 1 μM,++ (++=30-70%)
same,DC50,[2],50 to 500 nM
same,inhibition at 1 µM,[2]; @ 1 μM,30 to 70%
"C[C@@H]1CCN(c2cc(-c3ccccc3O)nnc2N)CCN1c1ccnc(C#CCN2CC3(COC3)C2)n1 [Compound P-213, o-{5-[(R)-5-methyl-4-(2-{3-(2-oxa-6-aza-6-spiro[3.3]heptyl)-1-propynyl}-4-pyrimidinyl)-1,4-diazepan-1-yl]-6-amino-3-pyridazinyl}phenol]",DC50,[1],50 to 500 nM
same,SMARCA2 % Degradation @ 1 μM,[1]; @ 1 μM,++ (++=30-70%)
same,DC50,[2],> 5000 nM
same,inhibition at 1 µM,[2]; @ 1 μM,< 30%
"Nc1nnc(-c2ccccc2O)cc1N1CC2CC1CN(c1ccnc(C#CCNC(=O)c3cc4ncccn4n3)n1)C2 (stereo not shown) [Compound P-17, N-(3-(4-(6-(3-amino-6-(2-hydroxyphenyl)pyridazin-4-yl)-3,6-diazabicyclo[3.2.1]octan-3-yl)pyrimidin-2-yl)prop-2-yn-1-yl)pyrazolo[1,5-a]pyrimidine-2-carboxamide]",DC50,[1],500 to 5000 nM
same,SMARCA2 % Degradation @ 1 μM,[1]; @ 1 μM,++ (++=30-70%)
same,DC50,[2],500 to 5000 nM
same,inhibition at 1 µM,[2]; @ 1 μM,30 to 70%
"Oc1ccccc1-c1cc(N2CC3CCC(C2)N3c2ccnc(C#CCN3CCCCC3)n2)cnn1 [Compound P-369, 0-(5-{8-[2-(3-piperidino-1-propynyl)-4-pyrimidinyl]-3,8-diazabicyclo[3.2.1]oct-3-y1}-3-pyridazinyl)phenol]",DC50,[1],< 50 nM
same,SMARCA2 % Degradation @ 1 μM,[1]; @ 1 μM,++ (++=30-70%)
same,DC50,[2],500 to 5000 nM
same,inhibition at 1 µM,[2]; @ 1 μM,< 30%
"C[C@@H]1CCN(c2cc(-c3ccccc3O)nnc2N)CCN1c1ccnc(C#CCN2C3CCC2COC3)n1 [Compound P-160, o-{5-[(R)-5-methyl-4-(2-{3-(3-oxa-8-azabicyclo[3.2.1]oct-8-yl)-1-propynyl}-4-pyrimidinyl)-1,4-diazepan-1-yl]-6-amino-3-pyridazinyl}phenol]",DC50,[1],50 to 500 nM
same,SMARCA2 % Degradation @ 1 μM,[1]; @ 1 μM,+++ (+++=>70%)
same,DC50,[2],50 to 500 nM
same,inhibition at 1 µM,[2]; @ 1 μM,30 to 70%
